# Key:
# [1] = tested on: T47D breast cancer multicellular tumor spheroids; test: In vitro screen in T47D breast cancer multicellular tumor spheroids, BET inhibitor plus palbociclib; assay type: cell-based; conditions: for Growth inhibition of T47D spheroids, as average diameter (mm): combination with palbociclib (25 nM) versus single agents; for Synergy score: BET inhibitor (30, 300, 3000 nM) in combination with 25 nM palbociclib, from AUC of spheroid growth curves (Chalice Analyzer)
# Description: T47D multicellular tumor spheroids were grown in a low-adhesion 96-well plate for use in screening. […] Two hundred T47D cells were seeded per well of 96-well ultralow attachment plates (ULA-96U, Thermo Fisher). Cells were grown for 4 days to allow spheroid formation, followed by initiation of compound treatment as indicated (day 0). […] The medium was replaced every 3 days. Spheroid average diameter was quantified every 3 days (Celigo 200-BFFL-S, Nexcelcom) and spheroid growth curves were obtained. The area-under-curve (AUC) was quantified and used to calculate synergy scores for BET inhibitors in combination with palbociclib (Chalice Analyzer, Horizon Discovery).
# [2] = tested on: Hs766T pancreatic cancer spheroids; test: In vitro screen in Hs766T PDAC multicellular tumor spheroids, BET inhibitor plus palbociclib; assay type: cell-based; conditions: combination with palbociclib (50 nM) versus single agents
# Description: Hs766T multicellular tumor spheroids were grown in a low-adhesion 96-well plate for use in screening. Hs766T cells were cultured in DMEM medium supplemented with 10% fetal bovine serum (GIBCO™). 2% Matrigel (Cultrex, cat#3432-005-1) was added to the medium, and 400 cells/well were subsequently seeded per well of 96-well ultralow attachment plates (ULA-96U, Thermo Fisher). Cells were grown for 4 days to allow spheroid formation, followed by initiation of compound treatment as indicated (day 0). Cells were treated either with vehicle (DMSO), or with 3 nM, 10 nM or 30 nM of test compound B7, or 30 nM, 300 nM or 3000 nM of test compound B8. […] The medium was replaced every 3 days. Spheroid average diameter was quantified every 3 days (Celigo 200-BFFL-S, Nexcelcom). Spheroid growth curves, generated as described in Example 2, are shown in FIGS. 12A-12C (B7); and FIGS. 13A-13C (B8).
# [3] = tested on: MCF-7 breast cancer xenograft; test: In vivo study in MCF-7 breast cancer xenograft; parameters: species or system NOD scid gamma (NSG) mice; conditions: palbociclib 50 mpk plus ABBV-075 2 mpk once daily days 0-20, recovery until day 47
# Description: NOD scid gamma (NSG) mice (6-7 weeks old, Jax laboratory, Sacramento CA) were subcutaneously injected with 5×10^6 MCF-7 cells (ATCC) with 50% matrigel. When MCF-7 xenografts reached a volume of -150 mm^3, the tumor bearing mice were randomly assigned to four treatment groups, with each n=10 (vehicle, palbociclib (50 mpk), mivebresib (2 mpk), combination treatment with palbociclib (50 mpk) plus mivebresib (2 mpk)). Treatment was initiated after the randomization as indicated. Mice were treated once daily from days 0-20 and then tumors were allowed to recover until day 47. Mean tumor volumes (mm^3) are averages of MCF-7 xenografts (n=10).
# BRD4 = BRD4 (Homo sapiens, UniProt O60885); conditions: method not given; listed beside Literature Ref.; cited from earlier work
Compound,"Growth inhibition of T47D spheroids, as average diameter (mm) [1]",Synergy score [1],"Growth inhibition of Hs766T spheroids, as average diameter (mm) [2]",Tumor growth delay and tumor growth inhibition (mean tumor volume) [3],IC50 (BRD4)
"CCNC(=O)C[C@@H]1N=C(c2ccc(Cl)cc2)c2cc(OC)ccc2-n2c(C)nnc21 [B3, IBET-762 (GSK525762)]",enhanced growth inhibition,,,,
"Cc1sc2c(c1C)C(c1ccc(Cl)cc1)=N[C@@H](CC(=O)Nc1ccc(O)cc1)c1nnc(C)n1-2 [B10, MK-8628 (OTX015)]",enhanced growth inhibition,,,,
"COc1cc(OC)c2c(=O)[nH]c(-c3cc(C)c(OCCO)c(C)c3)nc2c1 [B6, RVX-208 (RVX000222 or apabetalone)]",enhanced growth inhibition,0.33,,,
"CCS(=O)(=O)Nc1ccc(Oc2ccc(F)cc2F)c(-c2cn(C)c(=O)c3[nH]ccc23)c1 [B7, ABBV-075 (mivebresib)]",enhanced growth inhibition,,enhanced growth inhibition,enhanced tumor growth delay and tumor growth inhibition,1.5 nM
"Cc1cc2cc(NS(=O)(=O)c3ccccc3F)ccc2[nH]c1=O [B4, PFI-2]",enhanced growth inhibition,0.79,,,96 nM
"Cc1sc2c(c1C)C(c1ccc(Cl)cc1)=N[C@@H](CC(=O)OC(C)(C)C)c1nnc(C)n1-2 [B2, JQ1]",enhanced growth inhibition,1.08,,,
PFI-1 [B5],enhanced growth inhibition,0.76,,,136 nM
"COc1nnc2ccc(N3CCC(c4ccc(OCCN5CCN(C)C(=O)[C@H]5C)cc4)CC3)nn12 [B8, AZD5153]",enhanced growth inhibition,,enhanced growth inhibition,,
"Cc1noc2c1-c1ccccc1C(c1ccc(Cl)cc1)=N[C@H]2CC(N)=O [B9, CPI-0610]",enhanced growth inhibition,,,,
"COc1cc2c(cc1-c1c(C)noc1C)ncc1[nH]c(=O)n([C@H](C)c3ccccn3)c12 [B1, IBET-151 (GSK1210151)]",enhanced growth inhibition,1.09,,,

# Reference: patent US20200405809A1, “COMBINATION OF A CYCLIN DEPENDENT KINASE INHIBITOR AND A BET- BROMODOMAIN INHIBITOR” (Pfizer Inc., priority 2018, published 2020)
